In patent US20240024281A1, “METHODS AND COMPOSITIONS FOR TREATING LIVER DISEASES” (INSTITUT NATIONAL DE LA SANTÉ ET DE LA RECHERCHE MÉDICALE, priority 2018, published 2024):
“Also recorded” adds a separate entry of the source.

Experiments:
[1] = system: liver cancer cell (HepG2, Huh7 and Hep3B); experiment: Liver cancer cell proliferation; format: cell-based; conditions: for liver cancer cell proliferation and apoptosis, alone and co-treated with sorafenib (confirmation of the STF-083010 data): data not shown
Experimental: (§1) FIG. 3A-B: Inhibition of IRE1α RNase signalling with STF potentiates the effectiveness of Sorafenib in reducing liver cancer cell proliferation and inducing apoptosis. Effect of Sorafenib (SORA, 5 μM), STF-083010 (STF, 60 μM) and their combination on (A) liver cancer cell proliferation (HepG2, Huh7 and Hep3B) and on (B) inducing apoptosis. STF-083010 was added one hour before SORA. Stimulations were performed during 24 hours. $p<0.05 when comparing treated to untreated counterpart. Results are expressed as mean with SEM *p<0.05, **p<0.01, ***p<0.001 and ****p<0.0001.
(§2) FIG. 4: Hyperactive IRE1α RNase triggers secretion of pro-inflammatory markers. Effect of Sorafenib (SORA, […]), Ac-YVAD-CMK (YVAD, 25 μM) and their combination on liver cancer cell proliferation (HepG2) and on inducing apoptosis. Ac-YVAD-CMK (YVAD) was added one hour before SORA. Stimulations were performed during 24 hours. $p<0.05 when comparing treated to untreated counterpart. Results are expressed as mean with SEM *p<0.05, **p<0.01, ***p<0.001 and ****p<0.0001.
FIG. 5A-B: Co-treatment enhancing apoptosis via IRE1α kinase activity. Effect of Sorafenib (SORA, 5 μM), STF-083010 (STF, 60 μM) and their combination on HepG2 cells proliferation with or without (A) JNK inhibitor SP600125 (SP, 50 μM) pre-treatment or (B) Necrostatin (Nec-1, 50 μM) pre-treatment. Stimulations were performed during 24 hours. $p<0.05 when comparing treated to untreated counterpart. Results are expressed as mean with SEM *p<0.05, **p<0.01, ***p<0.001 and ****p<0.0001.

[2] = system: xenograft HepG2 cells; experiment: Xenograft mouse model of HCC, tumor volume; format: in vivo, mice
Experimental: FIG. 6A-B: Inhibition of IRE1α RNase activity with STF potentiates Sorafenib action in vivo. (A) Protocol timeline for Sorafenib (30 mg/kg i.p. daily) and/or STF-083010 (30 mg/kg i.p. twice a week) injections in mice with xenograft HepG2 cells. (B) Effect of SORA, STF, and their combination on tumor volume in mice. $p<0.05 when comparing treated to untreated counterpart. Results are expressed as mean with SEM *p<0.05.

[3] = biological target: T1, IRE1α RNase activity (Mus musculus, UniProt Q9EQY0); experiment: IRE1α RNase signaling (XBP1 mRNA, sXBP1 protein) in primary hepatocytes from BI-1−/− or WT mice; format: cell-based; conditions: BI-1−/− primary hepatocytes; STF-083010 60 μM
T1 construct: Hepatocytes from mouse liver were isolated by a two-step collagenase procedure; endogenous in cells; host or cells: primary hepatocytes isolated from livers of BI-1−/− and WT mice
T1 sequence (Q9EQY0 21-977): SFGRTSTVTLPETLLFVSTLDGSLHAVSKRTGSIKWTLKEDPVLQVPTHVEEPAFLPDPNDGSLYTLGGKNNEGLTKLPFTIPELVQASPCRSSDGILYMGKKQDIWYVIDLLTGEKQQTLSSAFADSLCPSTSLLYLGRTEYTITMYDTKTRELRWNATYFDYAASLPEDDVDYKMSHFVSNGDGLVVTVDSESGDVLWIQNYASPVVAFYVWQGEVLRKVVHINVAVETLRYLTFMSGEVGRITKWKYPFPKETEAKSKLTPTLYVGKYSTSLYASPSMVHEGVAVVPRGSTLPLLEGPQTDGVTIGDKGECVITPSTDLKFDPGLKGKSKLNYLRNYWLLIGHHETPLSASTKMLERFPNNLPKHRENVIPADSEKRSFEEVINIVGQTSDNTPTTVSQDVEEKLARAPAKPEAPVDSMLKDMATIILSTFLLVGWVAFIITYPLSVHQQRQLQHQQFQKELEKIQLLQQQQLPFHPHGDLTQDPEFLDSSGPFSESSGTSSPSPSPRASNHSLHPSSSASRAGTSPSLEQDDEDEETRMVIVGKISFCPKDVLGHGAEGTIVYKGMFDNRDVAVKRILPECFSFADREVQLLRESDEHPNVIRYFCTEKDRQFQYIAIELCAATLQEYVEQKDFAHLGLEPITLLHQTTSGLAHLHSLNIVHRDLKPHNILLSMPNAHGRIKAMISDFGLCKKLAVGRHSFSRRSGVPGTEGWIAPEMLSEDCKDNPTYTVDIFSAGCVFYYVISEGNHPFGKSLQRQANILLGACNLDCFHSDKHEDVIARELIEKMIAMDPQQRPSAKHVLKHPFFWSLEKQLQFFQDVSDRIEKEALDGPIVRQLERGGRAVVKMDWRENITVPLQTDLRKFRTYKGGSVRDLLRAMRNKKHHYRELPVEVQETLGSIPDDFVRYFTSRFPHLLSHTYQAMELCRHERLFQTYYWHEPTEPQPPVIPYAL
Experimental: (§3) Total RNA was extracted from liver tissue or cells then reverse-transcribed as previously described15. Real-time quantitative PCR was performed using the ABI PRISM 7500/Step-One Fast Real Time PCR System following the manufacturer's protocols in C3M genomics facilities. See the Supporting Methods for TaqMan gene expression assays.
(§4) Total protein was isolated from snap-frozen livers or primary hepatocytes homogenized in detergent-containing buffer, normalized for protein content (40 μg/tissue sample and 20 μg/cell sample), and analyzed by SDS-PAGE (8-15% gels) immunoblotting as previously described15. Western blot analyses were performed using antibodies described in Supporting Methods and detected with an enhanced chemiluminescence method (Amersham Biosciences, Piscataway, NJ, USA). Immunoblots were scanned and the signals were quantified using ImageJ software.
Hepatocytes from mouse liver were isolated by a two-step collagenase procedure, as we described18,23 and cultured in media detailed in Supporting Methods. […] After 48 hr of transfection, cells were treated with TM (1 μg/ml) or LPS (100 ng/ml) for the determined times. […] Cell viability was determined by a colorimetric assay (MTT) detailed in Supporting Methods. […]

[4] = system: NLRP3 inflammasome; experiment: Caspase-11 and NLRP3 overexpression in LPS-treated primary hepatocytes; format: cell-based, mouse; conditions: LPS-treated BI-1−/− primary hepatocytes; STF-083010 60 μM
Experimental: as §4
Hepatocytes from mouse liver were isolated by a two-step collagenase procedure, as we described18,23 and cultured in media detailed in Supporting Methods. When indicated, primary hepatocytes were transfected with Stealth siRNA (targeting BI-1, IRE1α, XBP1 or CHOP with the corresponding control of Low or Medium CG) at 30 nM using Lipofectamine RNAiMAX (ThermoFisher Scientific, Courtaboeuf, France) according to the manufacturer's instructions. After 48 hr of transfection, cells were treated with TM (1 μg/ml) or LPS (100 ng/ml) for the determined times. Primary hepatocytes isolated from the livers of BI-1−/− and WT mice were treated with TM or LPS in the presence or absence of STF-083010 (60 μM) or Ac-YVAD-CMK (25 μM). Cell viability was determined by a colorimetric assay (MTT) detailed in Supporting Methods. […]

[5] = system: primary hepatocytes isolated from the livers of BI-1−/− and WT mice; experiment: Primary hepatocyte viability (MTT) with TM or LPS; format: cell-based, mouse
Experimental: Hepatocytes from mouse liver were isolated by a two-step collagenase procedure, as we described18,23 and cultured in media detailed in Supporting Methods. When indicated, primary hepatocytes were transfected with Stealth siRNA (targeting BI-1, IRE1α, XBP1 or CHOP with the corresponding control of Low or Medium CG) at 30 nM using Lipofectamine RNAiMAX (ThermoFisher Scientific, Courtaboeuf, France) according to the manufacturer's instructions. After 48 hr of transfection, cells were treated with TM (1 μg/ml) or LPS (100 ng/ml) for the determined times. Primary hepatocytes isolated from the livers of BI-1−/− and WT mice were treated with TM or LPS in the presence or absence of STF-083010 (60 μM) or Ac-YVAD-CMK (25 μM). Cell viability was determined by a colorimetric assay (MTT) detailed in Supporting Methods. Results are presented as a percentage of the control values.

[6] = system: HFD-fed BI-1−/− mice; experiment: HFD- or ND-fed BI-1+/+ and BI-1−/− mice treated with STF-083010 (NASH development); format: in vivo, mouse
Experimental: FIG. 1A-C: Early Into HFD feeding, limiting the ER stress response by inhibiting IRE1α RNase activity protects from steatosis and hyperglycemia. Starting 2.5 months after HFD feeding, BI-1+/+ and BI-1−/− mice were treated with STF-083010 (30 mg/kg) or vehicle (NT, Kolliphor 16%) twice a week for 2 weeks before sacrifice. (A) Relative liver triglyceride levels.
(A) Protocol timeline for vehicle (NT, Kolliphor 16%) or STF-083010 (30 mg/kg) injections in HFD-fed BI-1+/+ and BI-1−/− mice. (B) qPCR analysis of hepatic genes involved in lipid synthesis and metabolism (n=3). […] (C) Blood glucose concentrations in fed BI-1+/+ and BI-1−/− mice (n=6).
All animal procedures were conducted in compliance with French guidelines for the humane care and use of experimental animals. Male mice with targeted disruption of the BI-1 gene representing BI-1+/+(WT) and BI-1−/− littermates on a C57BL/6 background were obtained from Dr. John C. Reed at the Stanford-Burnham Institute for Medical Research (La Jolla, CA, USA)17,18. Experiments conducted with 12-week old mice included: 1) Mice injected intraperitoneally with TM (1 mg/kg) or vehicle and sacrificed 48 hr after treatment (unless otherwise indicated), 2) Animals either fed a ND (A04—Safe Diet, Augy, France) or HFD (60 kJ % fat, D12492-ssniff, Soest, Germany) for up to 9 months, 3) Towards the end of a 3-month ND or HFD, mice were injected with STF-083010 (30 mg/kg) or vehicle twice a week for 2 weeks before sacrifice. Mice were housed in a controlled environment with 12 hr light/dark cycles with water available ad libitum.
Liver tissue specimens were fixed in 10% buffered formalin, embedded in paraffin, sectioned (5 μm thick) and stained with either H&E, Masson's trichrome, MPO or TUNEL (Roche Molecular Biochemicals, Meylan, France). Specimens were evaluated by microscopy in a blinded manner by a liver pathologist.
as §3, §4
Serum AST and ALT levels were determined using a standardized UV test after activation with pyridoxal-phosphate and serum triglyceride levels were determined by standardized enzymatic colorimetric assay (Roche-Hitachi analyzer Cobas 8000, Meylan, France). Hepatic triglyceride content was measured using a Triglycerides FS 10′ kit (DiaSys, Holzheim, Germany). Cytokines were quantitatively measured by flow cytometry as described15.

[7] = system: HCC cell lines; experiment: Apoptosis induction in HCC cell lines; format: cell-based; conditions: 24 hours
Experimental: as §1, §2

[8] = BI-1−/− mice after 3 months of HFD
[9] = BI-1−/− mice, twice a week for 2 weeks towards the end of a 3-month HFD

Cc1cc(=O)oc2c(C=O)c(O)ccc12 [4μ8c]
liver cancer cell proliferation and apoptosis, alone and co-treated with sorafenib (confirmation of the STF-083010 data) [1]: confirmed

COc1cc2c(C)c(CC(=O)N3CCOCC3)c(=O)oc2c(C=O)c1O [MKC6688]
liver cancer cell proliferation and apoptosis, alone and co-treated with sorafenib (confirmation of the STF-083010 data) [1]: confirmed
sorafenib-mediated tumor suppression (confirmation of the STF-083010 data) ([2]; data not shown): confirmed

CN1C(=O)C(Cc2c[nH]c3ccccc23)NC1=S (stereo not shown) [Necrostatin-1]
effect of Sorafenib and SFT-083010 on cancer cell proliferation after pre-treatment ([1]; HepG2, 50 μM pre-treatment, Sorafenib 5 μM, STF 60 μM, 24 hours, FIGS. 5A and 5B): inhibit the effect

O=S(=O)(N=Cc1c(O)ccc2ccccc12)c1cccs1 [STF-083010, N-[(2-Hydroxy-1-naphthalenyl)methylene]-2-thiophenesulfonamide]
XBP1 mRNA levels [3]: decrease
sXBP1 protein [3]: decrease
overexpression of active caspase-11 and NLRP3 [4]: limited
viability of WT hepatocytes ([5]; STF-083010 alone, 60 μM): compromised the viability
viability of BI-1−/− hepatocytes ([5]; co-treated with TM and LPS, STF-083010 60 μM): improved the viability
NASH development ([6]; BI-1-deficient mice, HFD): rescuing from NASH; also recorded: reverses the propensity
histological signs of inflammation and grade-3 steatosis ([6]; BI-1−/− HFD mice, 30 mg/kg twice a week for 2 weeks): suppressed
activation of caspase-1/-11 and NLRP3 proteins ([6]; BI-1−/− HFD-fed mice): counteracted the activation
mRNA levels of NLRP3 inflammasome and pro-inflammatory response components ([6]; BI-1−/− HFD-fed mice): normalized
collagen accumulation with cellular infiltration [6, 8]: prevented
hepatic Col6a3 upregulation [6, 8]: significantly limited
liver discoloration (macroscopic) ([6]; BI-1−/− mice fed a HFD for 3 months, 30 mg/kg twice a week for 2 weeks): prevented
IRE1a endoribonuclease activity in vivo [6, 9]: effectively counteracted
glucose tolerance [6, 9]: improving
mRNA levels of metabolic master regulators (SREBP1, FASN and c-JUN) ([6]; HFD-fed BI-1−/− mice, liver qPCR, FIG. 2B): within normal mRNA levels
lipid droplet diameter in hepatocytes ([6]; HFD-fed BI-1−/− mice, 30 mg/kg twice a week for 2 weeks): from massive to average size
liver triglyceride content ([6]; HFD-fed BI-1−/− mice, 30 mg/kg twice a week for 2 weeks, FIG. 1A): Normalized
liver injury ([6]; HFD-fed mice, both genotypes): protected from liver injury
blood glucose concentrations ([6]; HFD-fed mice, FIG. 2C): normalization
appearance of the liver ([6]; ND-fed mice): did not alter
MPO-positive cells ([6]; STF-083010-treated versus untreated mice fed a HFD): significant decrease
increase in BI-1 mRNA levels ([6]; WT mice fed a HFD, FIG. 1C): 15%
CHOP/GRP78 ratio, protein and mRNA levels ([6]; livers from BI-1−/− mice, HFD): reduced
expression of IRE1α RNase target sXBP1, protein and mRNA levels ([6]; livers from BI-1−/− mice, HFD): reduced
liver cancer cell proliferation ([1]; HepG2, Huh7 and Hep3B, 60 μM alone, 24 hours, FIG. 3A): reduces
effectiveness of sorafenib in reducing liver cancer cell proliferation ([1]; co-treated with Sorafenib 5 μM, STF 60 μM added one hour before, 24 hours, FIG. 3A): improves their effectiveness
effectiveness of sorafenib in inducing apoptosis ([7]; HCC cell lines, co-treated with Sorafenib 5 μM, STF 60 μM, FIG. 3B): improves their effectiveness
sorafenib-mediated tumor suppression (tumor volume) ([2]; STF-083010 30 mg/kg i.p. twice a week with Sorafenib 30 mg/kg i.p. daily, FIG. 6B): increased

Ac-YVAD-CMK
effectiveness of sorafenib in reducing liver cancer cell proliferation ([1]; HepG2, YVAD 25 μM added one hour before Sorafenib, 24 hours, not more efficiently than SFT-083010, FIG. 4): enhances
effectiveness of sorafenib in inducing apoptosis ([7]; HepG2, YVAD 25 μM added one hour before Sorafenib, not more efficiently than SFT-083010, FIG. 4): enhances
